The target in this assay is T1, RORc ligand binding domain (Homo sapiens, UniProt P51449).
T1 construct: host or cells: E. coli
T1 sequence (P51449 269-508 limits assumed): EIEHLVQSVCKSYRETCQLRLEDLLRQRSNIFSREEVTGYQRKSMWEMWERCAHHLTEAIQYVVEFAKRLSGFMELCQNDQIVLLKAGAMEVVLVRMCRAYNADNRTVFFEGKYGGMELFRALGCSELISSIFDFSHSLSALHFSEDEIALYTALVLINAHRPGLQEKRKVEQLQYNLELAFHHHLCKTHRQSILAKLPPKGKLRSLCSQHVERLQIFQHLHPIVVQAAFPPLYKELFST
In words: In vitro RORc ligand binding assay (25-[3H]hydroxycholesterol displacement, filter binding). Here is the method:
This assay was used to determine a compound's potency in inhibiting activity of RORc by determining, Kiapp, IC50, or percent inhibition values.
On day of the assay, 100 uL of 0.05% CHAPS (in deionized H2O) was added to all wells of the GFB Unifilter plate and allowed soak for 1 h. A wash buffer of 50 mM HEPES (pH 7.4), 150 mM NaCl, and 5 mM MgCl2 was prepared to wash the filter plate. To prepare an assay buffer, BSA was added to the wash buffer to reach 0.01% and DTT was added to reach 1 mM.
The 20× compound stocks were diluted in DMSO with Assay Buffer 4-fold to reach 5× the final test concentration in 25% DMSO (10 uL compound+30 uL Assay Buffer). Solutions were mixed by aspiration several times with a pipette set on 50 uL volume. For the assay, 10 uL of 5× compound stock solutions in 25% DMSO were added to the assay plate in duplicate.
For two point screening, 10 mM stock compound solutions were diluted in DMSO to obtain 200 uM (20× the high test concentration) and then diluted 10-fold further to reach 20 uM (20× the low test concentration). The 20× stocks were diluted 4-fold with Assay Buffer (10 uL compound+30 uL Assay Buffer) to reach 5× the test concentrations (50 uM and 5 uM) and 10 uL were added to two assay plates for the duplicate wells. With each concentration tested on 2 plates, each set of 80 compounds used 4 assay plates (1 uM and 10 uM, with n=2).
For 25-hydroxycholesterol in 25% DMSO/75% Assay Buffer; 10 uL per well was used for NSB samples. Wells for Total Binding and No Receptor sample determination contained 10 uL of 25% DMSO/75% Assay Buffer per well.
Add 20 uL to all wells to reach 6 nM final concentration in the assay.
Stock receptor solution was diluted in assay buffer to obtain 1.5 ug/mL in Assay Buffer. 20 uL was added to all wells. For No Receptor samples, 20 uL Assay Buffer was substituted for receptor solution.
Assay plates were 96-well polypropylene V-bottom plates. 10 uL of 5× compound in 25% DMSO/75% Assay Buffer was added to Test wells. 10 uL of 25% DMSO/75% Assay Buffer was added to Total Binding or No Receptor wells. 10 uL of 5 uM 25-hydroxycholesterol in 25% DMSO/75% Assay Buffer was added to NSB wells. […] 20 uL of 1.5 ug/mL RORc receptor was added to wells (or 40 uL Assay Buffer to No R wells). Following addition to the wells, the plates were incubated 3 h at 25° C.
Using a Packard Filtermate Harvester, the filter plate were washed 4 times following transfer of the incubated samples. Plates were dry-filtered completely (2 h at 50° C. or overnight at room temperature). 50 uL Microscint 0 was added to all wells and read on Topcount protocol Inverted.
The molecule `CC1(C)[C@H]2CC[C@]1([C@@H]1CN(C(=O)c3c[nH]c(=O)cn3)CCO1)c1nnc(-c3c(F)cccc3F)cc12` [Compound 118, 5-[2-[5-(2,6-difluorophenyl)-11,11-dimethyl-3,4-diazatricyclo[6.2.1.02,7]undeca-2,4,6-trien-1-yl]morpholine-4-carbonyl]-1H-pyrazin-2-one] yielded an IC50 of 11 nM. That is a double-digit nanomolar value. On to `COC(=O)N1CCO[C@H]([C@@]23CC[C@@H](c4cc(-c5c(F)cccc5F)nnc42)C3(C)C)C1` [Compound 85, (R)-methyl 2-((5R,8R)-3-(2,6-difluorophenyl)-9,9-dimethyl-5,6,7,8-tetrahydro-5,8-methanocinnolin-8-yl)morpholine-4-carboxylate], for which the IC50 turned out to be 69.8 nM. In turn, `CC1(C)[C@H]2CC[C@]1([C@H]1CN(c3ncn[nH]3)CCO1)c1nnc(-c3c(F)cccc3F)cc12` [Compound 144, 2-[5-(2,6-difluorophenyl)-11,11-dimethyl-3,4-diazatricyclo[6.2.1.02,7]undeca-2,4,6-trien-1-yl]-4-(1H-1,2,4-triazol-5-yl)morpholine] returned an IC50 of 34 nM. This IC50 lies about 2.1-fold lower than the previous one.

In turn, `Cc1coc(N2CCO[C@@H]([C@@]34CC[C@@H](c5cc(-c6c(F)cccc6F)nnc53)C4(C)C)C2)n1` [Compound 145, 2-[5-(2,6-difluorophenyl)-11,11-dimethyl-3,4-diazatricyclo[6.2.1.02,7]undeca-2,4,6-trien-1-yl]-4-(4-methyloxazol-2-yl)morpholine] had an IC50 of 18 nM. For `CNC(=O)N1CCO[C@H]([C@@]23CC[C@@H](c4cc(-c5c(F)cccc5F)nnc42)C3(C)C)C1` [Compound 69, (R)-2-((5R,8R)-3-(2,6-difluorophenyl)-9,9-dimethyl-5,6,7,8-tetrahydro-5,8-methanocinnolin-8-yl)-N-methylmorpholine-4-carboxamide] the value was 37.7 nM. For the molecule `CC1(C)[C@H]2CC[C@]1([C@H]1CCCN(C(=O)NCC3(O)COC3)C1)c1nnc(-c3c(F)cccc3F)cc12` (stereo in doubt) [Compound 153, 3-[5-(2,6-difluorophenyl)-11,11-dimethyl-3,4-diazatricyclo[6.2.1.02,7]undeca-2,4,6-trien-1-yl]-N-[(3-hydroxyoxetan-3-yl)methyl]piperidine-1-carboxamide], the IC50 was 110 nM. Against the preceding molecule, the IC50 is about 2.9-fold higher. The molecule `CC(C)(O)CNC(=O)CO[C@@]12CC[C@@H](c3cc(-c4c(F)cccc4F)nnc31)C2(C)C` [Compound 48, 2-(((5S,8R)-3-(2,6-difluorophenyl)-9,9-dimethyl-5,6,7,8-tetrahydro-5,8-methanocinnolin-8-yl)oxy)-N-(2-hydroxy-2-methylpropyl)acetamide] yielded a concentration for half-maximal inhibition (IC50) of 95.2 nM. For the molecule `CC1(C)[C@H]2CC[C@]1(Oc1cnccn1)c1nnc(-c3c(F)cccc3F)cc12` [Compound 11, (5S,8R)-3-(2,6-difluorophenyl)-9,9-dimethyl-8-(pyrazin-2-yloxy)-5,6,7,8-tetrahydro-5,8-methanocinnoline], the 50% inhibitory concentration (IC50) was 79.9 nM. The value for `CC1(C)[C@H]2CC[C@]1([C@H]1CCCN(C(=O)NC3(CO)COC3)C1)c1nnc(-c3c(F)cccc3F)cc12` [Compound 171] was 6.5 nM; that for `CC1(C)[C@H]2CC[C@]1([C@H]1CN(C(=O)C(O)CO)CCO1)c1nnc(-c3c(F)cccc3F)cc12` (stereo partly drawn) [Compound 76, 1-((S)-2-((5R,8R)-3-(2,6-difluorophenyl)-9,9-dimethyl-5,6,7,8-tetrahydro-5,8-methanocinnolin-8-yl)morpholino)-2,3-dihydroxypropan-1-one] was 277 nM; that for `CC[C@H](O[C@@]12CC[C@@H](c3cc(-c4c(F)cccc4F)nnc31)C2(C)C)C(=O)NCCS(C)(=O)=O` [Compound 26, (S)-2-(((5S,8R)-3-(2,6-difluorophenyl)-9,9-dimethyl-5,6,7,8-tetrahydro-5,8-methanocinnolin-8-yl)oxy)-N-(2-(methylsulfonyl)ethyl)butanamide] was 42.7 nM.

Broadly, the IC50 is the point on the concentration scale where inhibition reaches its midpoint. A higher IC50 goes with weaker potency in that assay.

Source of the values: patent publication US9994551B2, “Pyridazine derivatives as RORc modulators” (Genentech, Inc., priority 2015, dated 2018).
